Laboratory results reported in the supplement of paper PMC13380429.

Legend:
Settings in all cases: 72 h
Caco-2 [1] = experiment: relative viability EC50 (midpoint between 100% and the lowest measured viability); higher = less toxic
HepG2 [2] = experiment: as above
U2OS [3] = experiment: as above
Calu-3 [4] = experiment: as above
Vero E6 [5] = experiment: as above
Caco-2 [6] = experiment: drug sensitivity score (DSS) for viability; higher = more toxic; extreme values may be limits of the assay
HepG2 [7] = experiment: as above
U2OS [8] = experiment: as above
Calu-3 [9] = experiment: as above
Vero E6 [10] = experiment: as above
Caco-2 [11] = experiment: cell viability relative to DMSO; higher = less toxic
HepG2 [12] = experiment: as above
U2OS [13] = experiment: as above
Calu-3 [14] = experiment: as above
Vero E6 [15] = experiment: as above

SMILES	relative viability EC50 (Caco-2 [1]) [µM]	relative viability EC50 (HepG2 [2]) [µM]	relative viability EC50 (U2OS [3]) [µM]	relative viability EC50 (Calu-3 [4]) [µM]	relative viability EC50 (Vero E6 [5]) [µM]	drug sensitivity score (Caco-2 [6])	drug sensitivity score (HepG2 [7])	drug sensitivity score (U2OS [8])	drug sensitivity score (Calu-3 [9])	drug sensitivity score (Vero E6 [10])	cell viability (Caco-2 [11]; 1 nM) [%]	cell viability (Caco-2 [11]; 10 nM) [%]	cell viability (Caco-2 [11]; 100 nM) [%]	cell viability (Caco-2 [11]; 1000 nM) [%]	cell viability (Caco-2 [11]; 10000 nM) [%]	cell viability (HepG2 [12]; 1 nM) [%]	cell viability (HepG2 [12]; 10 nM) [%]	cell viability (HepG2 [12]; 100 nM) [%]	cell viability (HepG2 [12]; 1000 nM) [%]	cell viability (HepG2 [12]; 10000 nM) [%]	cell viability (U2OS [13]; 1 nM) [%]	cell viability (U2OS [13]; 10 nM) [%]	cell viability (U2OS [13]; 100 nM) [%]	cell viability (U2OS [13]; 1000 nM) [%]	cell viability (U2OS [13]; 10000 nM) [%]	cell viability (Calu-3 [14]; 1 nM) [%]	cell viability (Calu-3 [14]; 10 nM) [%]	cell viability (Calu-3 [14]; 100 nM) [%]	cell viability (Calu-3 [14]; 1000 nM) [%]	cell viability (Calu-3 [14]; 10000 nM) [%]	cell viability (Vero E6 [15]; 1 nM) [%]	cell viability (Vero E6 [15]; 10 nM) [%]	cell viability (Vero E6 [15]; 100 nM) [%]	cell viability (Vero E6 [15]; 1000 nM) [%]	cell viability (Vero E6 [15]; 10000 nM) [%]
CC(C)c1ccc2oc3nc(N)c(C(=O)O)cc3c(=O)c2c1 [amlexanox]	> 10	> 10	> 10	> 10	> 10	0	0	0	0	0	94	95.9	99.8	89.8	108	96.7	101	99.9	109	113	97.1	94.3	100	96.4	99.8	92.3	87.4	104	101	99.5	96.6	99.8	98.4	102	106
Cc1nc(-c2cccnc2)sc1C(=O)Nc1ccccc1-c1cn2c(CN3CCOCC3)csc2n1 [SRT2104]	> 10	> 10	> 10	> 10	> 10	0	0	0	0	0	90.6	92.2	104	99.2	102	100	92.8	98.8	90.6	108	95.5	104	94.6	101	99.2	93.6	98.8	102	104	112	98	94.9	92.9	90.8	106
COc1cccc(OC)c1-c1ccc(C[C@H](NC(=O)c2c(Cl)cccc2Cl)C(=O)O)cc1	> 10	> 10	> 10	> 10	> 10	0	0	0	0	0	85.9	90.1	97.6	94.4	108	91.7	104	91	99.5	99.3	103	96.5	98.5	97.8	93.4	104	90.9	105	96.9	108	92.2	96.2	91.8	99.9	107
CCCCCNCC(N)=O [milacemide]	> 10	> 10	> 10	> 10	> 10	0	0	0	0	0	100	90.8	91.4	99.6	95.5	109	97.9	95.2	94.6	110	103	100	98.3	101	98.6	108	113	107	99.6	95	99.9	105	104	97.3	101
